Data: US7772246B2 (Pfizer Inc., priority 2007, dated 2010)

Target: T1, b-Raf (Homo sapiens, UniProt P15056, V600E)
T1 construct: endogenous in cells; host or cells: A2058 human melanoma cells
Assay: Raf cellular assay (phospho-Mek1/2 ELISA in A2058 cells)
Assay type: cell-based
Conditions: Table 3; human melanoma A2058 cells (b-Raf mutation), Mek1/2 Ser217/221 phosphorylation, 1 hour incubation; read-out: pMEK IC50
Protocol: Compounds of the present invention were evaluated for potency against b-Raf using a cellular assay as follows. The activity of Raf kinases in cells is determined by measuring the level of phosphorylation of Mek1/2 at serine 217/221, the site phosphorylated by Raf kinases in vivo. Mek1/2 Ser phosphorylation is measured using anti-phospho-Mek1/2 antibodies (Cell Signaling #9121) in an ELISA format.
Healthy growing human melanoma A2058 cells (harboring a b-Raf mutation) are used for the assay. A2058 cells are grown in 10% FBS DMEM medium. When the cells are near 85%+confluence, the cells are rinsed with PBS once and trypsinized with trypsin/EDTA for 3 minutes. The cells are resuspended in 10% FBS DMEM and are centrifuged down at 1000 rpm for 5 minutes. The cells are resuspended in 10% FBS DMEM and counted on a cell counter. The cells are seeded at 50,000 cells/well in a volume of 100 μL/well in 10% FBS DMEM in a 96 well flat-bottom plate. The negative control wells receive only 100 μL of 10% FBS DMEM medium without cells. The plate is incubated overnight in a cell culture incubator with 5% CO2 at 37° C.
On day 2, testing compounds are prepared in 10% FBS DMEM medium and serially diluted at 1:3 for 11 test concentrations. Each concentration of the compounds is tested in duplicate. The compound solutions are added at 25 μL/well to the corresponding wells in the cell plate, and 25 μL/well of the vehicle (0.5% DMSO in 10% FBS DMEM) is added to the negative control wells (no cells) and the positive control wells (cells without compounds). The plate is incubated for 1 hour in a cell culture incubator with 5% CO2 at 37° C. After 1 hour of incubation, the medium is removed, 100 μL/well of cell lysis buffer is added into the cell plate, and the plate is shaken for 15 minutes at room temperature. After 15 minutes, the cell lysates are transferred to an ELISA plate (pre-coated with anti-Mek1 anti-body, Cell Signaling #2352), and the plate is incubated with gentle shaking for 2 hours at room temperature. After 2 hours, the contents of the wells are aspirated and the wells are washed 4 times with wash buffer. 100 μL of phospho-Mek1/2 detection antibody (Cell Signaling #9121) is added into each well and the plate is incubated with gentle shaking for 1 hour at room temperature. After 1 hour, the wells are aspirated and washed 4 times with wash buffer. 100 μL of anti-rabbit IgG HRP-linked antibody (Cell Signaling #7074) is added to each well, and the plate is incubated with gentle shaking for 1 hour at room temperature. After 1 hour, the contents of the wells are aspirated and the wells are washed 4 times with wash buffer. 100 μL of TMB substrate solution (Sigma #T0440) is added into each well, and the plate is incubated with gentle shaking at room temperature for 10 to 20 minutes. After color development, 100 μL of stop solution (1N hydrochloric acid) is added to each well to terminate color development. The plate is read at 450 nm on an ELISA plate reader.

T1 sequence (P15056 whole entry V600E): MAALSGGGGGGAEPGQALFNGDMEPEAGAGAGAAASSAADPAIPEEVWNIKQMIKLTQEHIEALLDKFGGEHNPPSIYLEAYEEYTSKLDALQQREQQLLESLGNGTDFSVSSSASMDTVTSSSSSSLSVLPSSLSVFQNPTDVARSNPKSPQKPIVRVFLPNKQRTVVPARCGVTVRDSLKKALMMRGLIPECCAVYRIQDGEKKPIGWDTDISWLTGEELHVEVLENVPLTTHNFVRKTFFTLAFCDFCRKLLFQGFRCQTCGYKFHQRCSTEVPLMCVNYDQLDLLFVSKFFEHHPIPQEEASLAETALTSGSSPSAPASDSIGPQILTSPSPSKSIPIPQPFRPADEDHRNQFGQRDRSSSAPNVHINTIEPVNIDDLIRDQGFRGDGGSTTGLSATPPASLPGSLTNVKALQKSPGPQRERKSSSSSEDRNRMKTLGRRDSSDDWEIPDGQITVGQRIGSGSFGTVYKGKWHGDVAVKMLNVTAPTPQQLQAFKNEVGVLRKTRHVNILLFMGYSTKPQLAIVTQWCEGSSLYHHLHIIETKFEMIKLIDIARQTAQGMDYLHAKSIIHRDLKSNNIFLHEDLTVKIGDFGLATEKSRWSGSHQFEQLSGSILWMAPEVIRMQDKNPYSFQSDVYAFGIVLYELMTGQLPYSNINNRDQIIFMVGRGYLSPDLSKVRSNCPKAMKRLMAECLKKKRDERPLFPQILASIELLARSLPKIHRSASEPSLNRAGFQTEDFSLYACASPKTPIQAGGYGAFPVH

SMILES	IC50 [nM]
COc1cc(-c2nn(CC(F)F)cc2-c2ccnc(NCCC#N)n2)cnc1N [Example B-82, 3-(4-(3-(6-amino-5-methoxypyridin-3-yl)-1-(2,2-difluoroethyl)-1H-pyrazol-4-yl)pyrimidin-2-ylamino)propanenitrile]	0.627
CC(C)(C)n1cc(-c2ccnc(NCCC#N)n2)c(-c2cnc3[nH]ccc3c2)n1 [Example B-74, 3-({4-[1-tert-butyl-3-(1H-pyrrolo[2,3-b]pyridin-5-yl)-1H-pyrazol-4-yl]pyrimidin-2-yl}amino)-propanenitrile]	5.33
CC(C)n1cc(-c2ccnc3[nH]ccc23)c(-c2cnc3[nH]ccc3c2)n1 [Example H-3, 4-(1-isopropyl-3-(1H-pyrrolo[2,3-b]pyridin-5-yl)-1H-pyrazol-4-yl)-1H-pyrrolo[2,3-b]pyridine]	427
CC(C)(O)CNc1nccc(-c2cn(CC(F)F)nc2-c2cnc3c(c2)CCN3)n1 [Example B-89, 1-(4-(1-(2,2-difluoroethyl)-3-(2,3-dihydro-1H-pyrrolo[2,3-b]pyridin-5-yl)-1H-pyrazol-4-yl)pyrimidin-2-ylamino)-2-methylpropan-2-ol]	284
CC(C)(CO)n1cc(-c2ccnc(NCCC#N)n2)c(-c2cnc3c(c2)CCN3)n1 [Example B-22, 3-({4-[3-(2,3-dihydro-1H-pyrrolo[2,3-b]pyridin-5-yl)-1-(2-hydroxy-1,1-dimethylethyl)-1H-pyrazol-4-yl]pyrimidin-2-yl}amino)propanenitrile]	26.3
O=S(=O)(C1CC1)N1CCC(Nc2nccc(-c3cn(CC(F)F)nc3-c3cnc4[nH]ccc4c3)n2)CC1 [Example B-27, N-[1-(cyclopropylsulfonyl)piperidin-4-yl]-4-[1-(2,2-difluoroethyl)-3-(1H-pyrrolo[2,3-b]pyridin-5-yl)-1H-pyrazol-4-yl]pyrimidin-2-amine]	184
CC(=O)c1cc(-c2nn(C(C)C)cc2-c2ccnc(NCCC#N)n2)cnc1N [Example B-52, 3-({4-[3-(5-acetyl-6-aminopyridin-3-yl)-1-isopropyl-1H-pyrazol-4-yl]pyrimidin-2-yl}amino)propanenitrile]	9.3
FC(F)CNc1nccc(-c2cn(CC(F)F)nc2-c2cnc3c(c2)CCN3)n1 [Example B-90, N-(2,2-difluoroethyl)-4-(1-(2,2-difluoroethyl)-3-(2,3-dihydro-1H-pyrrolo[2,3-b]pyridin-5-yl)-1H-pyrazol-4-yl)pyrimidin-2-amine]	43.4
CC(C)n1cc(-c2ccnc3[nH]ccc23)c(-c2cnc3[nH]cc(Cl)c3c2)n1 [Example H-4, 3-chloro-5-(1-isopropyl-4-(1H-pyrrolo[2,3-b]pyridin-4-yl)-1H-pyrazol-3-yl)-1H-pyrrolo[2,3-b]pyridine]	66.3
C[C@H](CO)n1cc(-c2ccnc(N)n2)c(-c2cnc3[nH]cc(Cl)c3c2)n1 [Example B-55, (2R)-2-[4-(2-aminopyrimidin-4-yl)-3-(3-chloro-1H-pyrrolo[2,3-b]pyridin-5-yl)-1H-pyrazol-1-yl]propan-1-ol]	63.6
COc1cc(-c2nn([C@H]3C[C@H](F)C3)cc2-c2ccnc(NC[C@H](C)O)n2)cnc1N [Example B-85, (S)-1-(4-(3-(6-amino-5-methoxypyridin-3-yl)-1-((1r,3r)-3-fluorocyclobutyl)-1H-pyrazol-4-yl)pyrimidin-2-ylamino)propan-2-ol]	21.9
CC(=O)c1cc(-c2nn(CC(F)F)cc2-c2ccnc(NCCC#N)n2)cnc1N [Example B-78, 3-(4-(3-(5-acetyl-6-aminopyridin-3-yl)-1-(2,2-difluoroethyl)-1H-pyrazol-4-yl)pyrimidin-2-ylamino)propanenitrile]	8.8
N#CCCNc1nccc(-c2cn(CC(F)F)nc2-c2cnc3cc[nH]c3c2)n1 [Example B-36, 3-({4-[1-(2,2-difluoroethyl)-3-(1H-pyrrolo[3,2-b]pyridin-6-yl)-1H-pyrazol-4-yl]pyrimidin-2-yl}amino)propanenitrile]	458
C[C@H](O)CNc1nccc(-c2cn(CC(F)F)nc2-c2ccnc3[nH]ccc23)n1 [Example B-29, (2S)-1-({4-[1-(2,2-difluoroethyl)-3-(1H-pyrrolo[2,3-b]pyridin-4-yl)-1H-pyrazol-4-yl]pyrimidin-2-yl}amino)propan-2-ol]	9390
COc1cc(-c2nn(C3CCOCC3)cc2-c2ccnc(NCC(F)F)n2)cnc1N [Example B-70, 4-[3-(6-amino-5-methoxypyridin-3-yl)-1-(tetrahydro-2H-pyran-4-yl)-1H-pyrazol-4-yl]-N-(2,2-difluoroethyl)-pyrimidin-2-amine]	2.33
COc1nc(-c2nn(C(C)(C)C)cc2-c2ccnc(NCCC#N)n2)cnc1N [Example B-30, 3-({4-[3-(5-amino-6-methoxypyrazin-2-yl)-1-tert-butyl-1H-pyrazol-4-yl]pyrimidin-2-yl}amino)propanenitrile]	0.2

Other lines, results leading:

IC50 [nM]	SMILES
22.9	Cc1n[nH]c2ncc(-c3nn(CC(F)F)cc3-c3ccnc(NCC(F)F)n3)cc12 [Example G-3, N-(2,2-difluoroethyl)-4-[1-(2,2-difluoroethyl)-3-(3-methyl-1H-pyrazolo[3,4-b]pyridin-5-yl)-1H-pyrazol-4-yl]pyrimidin-2-amine]
14.1	C[C@H](O)CNc1nccc(-c2cn(CC(F)F)nc2-c2cnc3[nH]cc(Cl)c3c2)n1 [Example B-96, (2S)-1-({4-[3-(3-chloro-1H-pyrrolo[2,3-b]pyridin-5-yl)-1-(2,2-difluoroethyl)-1H-pyrazol-4-yl]pyrimidin-2-yl}amino)propan-2-ol]
48.2	Cc1c[nH]c2ncc(-c3nn(C(F)F)cc3-c3ccnc(N)n3)cc12 [Example B-40, 4-[1-(difluoromethyl)-3-(3-methyl-1H-pyrrolo[2,3-b]pyridin-5-yl)-1H-pyrazol-4-yl]pyrimidin-2-amine]
9.62	COc1cc(-c2nn(CC(F)F)cc2-c2ccnc(NC[C@H](C)O)n2)cnc1N [Example B-104, (2S)-({4-[3-(6-amino-5-methoxypyridin-3-yl)-1-(2,2-difluoroethyl)-1H-pyrazol-4-yl]pyrimidin-2-yl}amino)propan-2-ol]
26	CC(C)n1cc(-c2ccnc(N)c2)c(-c2cnc3[nH]cc(Cl)c3c2)n1 [Example H-1, 4-(3-(3-chloro-1H-pyrrolo[2,3-b]pyridin-5-yl)-1-isopropyl-1H-pyrazol-4-yl)pyridin-2-amine]
9.04	CC(C)(C)n1cc(-c2ccnc(N)n2)c(-c2cnc3[nH]cc(Cl)c3c2)n1 [Example B-65, 4-[1-tert-butyl-3-(3-chloro-1H-pyrrolo[2,3-b]pyridin-5-yl)-1H-pyrazol-4-yl]pyrimidin-2-amine]
0.428	Cc1c[nH]c2ncc(-c3nn(C(C)(C)CO)cc3-c3ccnc(NCCC#N)n3)cc12 [Example B-23, 3-({4-[1-(2-hydroxy-1,1-dimethylethyl)-3-(3-methyl-1H-pyrrolo[2,3-b]pyridin-5-yl)-1H-pyrazol-4-yl]pyrimidin-2-yl}amino)propanenitrile]
28.5	Cc1cc(-c2nn(CC(F)F)cc2-c2ccnc(NCCC#N)n2)cnc1N [Example G-7, 3-(4-(3-(6-amino-5-methylpyridin-3-yl)-1-(2,2-difluoroethyl)-1H-pyrazol-4-yl)pyrimidin-2-ylamino)-propanenitrile]
8.06	Nc1nccc(-c2cn(CC(F)F)nc2-c2cnc3[nH]cc(Cl)c3c2)n1 [Example B-107, 4-[3-(3-chloro-1H-pyrrolo[2,3-b]pyridin-5-yl)-1-(2,2-difluoroethyl)-1H-pyrazol-4-yl]pyrimidin-2-amine]
83.3	COc1cc(-c2nn(C3CC3)cc2-c2ccnc(N)n2)cnc1N [Example B-56, 4-[3-(6-amino-5-methoxypyridin-3-yl)-1-cyclopropyl-1H-pyrazol-4-yl]pyrimidin-2-amine]
2.71	CC(C)n1cc(-c2ccnc(NCCC#N)n2)c(-c2cnc3[nH]cc(F)c3c2)n1 [Example B-19, 3-({4-[3-(3-fluoro-1H-pyrrolo[2,3-b]pyridin-5-yl)-1-isopropyl-1H-pyrazol-4-yl]pyrimidin-2-yl}amino)propanenitrile]
